{
  "source": "patent US20060165649A1",
  "about": "“Methods of using and compositions comprising selective cytokine inhibitory drugs for the treatment and management of myeloproliferative diseases” (priority 2002, published 2006)",
  "tested_on": "anesthetized dogs",
  "experiment": "Cardiovascular and respiratory function in anesthetized dogs (safety pharmacology)",
  "type": "in vivo",
  "conditions": "anesthetized Beagle dogs; three ascending doses 400, 800, and 1,200 mg/kg/day; infusion through the jugular vein; compared to the vehicle control group",
  "procedure": "The pharmacological properties of 3-(3,4-dimethoxy-phenyl)-3-(1-oxo-1,3-dihydro-isoindol-2-yl)-propionamide, including activity comparisons with thalidomide, are characterized in in vitro studies. Studies examine the effects of 3-(3,4-dimethoxy-phenyl)-3-(1-oxo-1,3-dihydro-isoindol-2-yl)-propionamide on the production of various cytokines. In addition, a safety pharmacology study of 3-(3,4-dimethoxy-phenyl)-3-(1-oxo-1,3-dihydro-isoindol-2-yl)-propionamide is conducted in dogs and the effects of the compound on ECG parameters are examined further as part of three repeat-dose toxicity studies in primates.\nThe effects of 3-(3,4-dimethoxy-phenyl)-3-(l-oxo-1,3-dihydro-isoindol-2-yl)-propionamide on cardiovascular and respiratory function are investigated in anesthetized dogs. Two groups of Beagle dogs (2/sex/group) are used. One group receives three doses of vehicle only and the other receives three ascending doses of 3-(3,4-dimethoxy-phenyl)-3-(1-oxo-1,3-dihydro-isoindol-2-yl)-propionamide (400, 800, and 1,200 mg/kg/day). In all cases, doses of 3-(3,4-dimethoxy-phenyl)-3-(1-oxo-1,3-dihydro-isoindol-2-yl)-propionamide or vehicle are successively administered via infusion through the jugular vein separated by intervals of at least 30 minutes. […]",
  "data": [
    {"compound": "COc1ccc(C(CC(N)=O)N2Cc3ccccc3C2=O)cc1OC", "note": "(stereo not shown) [3-(3,4-dimethoxy-phenyl)-3-(1-oxo-1,3-dihydro-isoindol-2-yl)-propionamide]", "values": [
      {"measurement": "cardiovascular and respiratory changes", "value": "minimal"}
    ]}
  ]
}
